Measurements taken from patent EP0323865A1, “Novel immunosuppressant agent” (Merck & Co., Inc., priority 1988, dated 1989).

Assays:
mouse T lymphocytes = experiment: T-cell proliferation assay (ionomycin plus PMA induced T-cell stimulation, tritiated thymidine uptake); type: cell-based, C57Bl/6 mice; details: result in words
Procedure: The principle of this assay is to measure the proliferation of mouse T lymphocytes stimulated with the combination of ionomycin plus PMA. A positive sample in this assay will inhibit T-cell proliferation, as indicated by reduced tritiated thymidine uptake.
An equal volume of methanol was added to a 1 ml sample of each of the above broths producing a 1:2 whole broth equivalent (WBE). The samples were centrifuged at 3,000 rpm for 5 minutes and the resulting supernatants were used as starting materials for the T-cell proliferation assay. […]
Purified T lymphocytes were resuspended at 10⁶ cells/ml in complete culture medium composed of RPMI 1640 medium with 10% heat-inactivated fetal calf serum, […], 1 mM sodium pyruvate, 2 x 10⁻⁵ M 2-mercaptoethanol and 50 µg/ml gentamycin. […] The proliferation of T lymphocytes was assessed by measurement of tritiated thymidine incorporation. […] Radioactivity of filter discs corresponding to individual wells was measured by standard liquid scintillation counting methods (Betacounter). Mean counts per minute of replicate wells were calculated and the results expressed as percent inhibition of tritiated thymidine uptake (proliferation) as follows: [formula]

[1] = Physical characteristics: solubility; type: physicochemical; details: methanol
Text: White amorphous powder • 2. […] Molecular weight determined by mass spectroscopy of 791.4784, consistent with an empirical formula of C₄₃H₆₉NO₁₂

SMILES | immunosuppressive activity (mouse T lymphocytes; for ascomycin no test is named) | inhibition of T-cell activation (mouse T lymphocytes) | Solubility [1]
CC[C@@H]1/C=C(\C)C[C@H](C)C[C@H](OC)[C@H]2O[C@@](O)(C(=O)C(=O)N3CCCC[C@H]3C(=O)O[C@H](/C(C)=C/[C@@H]3CC[C@@H](O)[C@H](OC)C3)[C@H](C)[C@@H](O)CC1=O)[C@H](C)C[C@@H]2OC [ascomycin, reference compound] | exhibits immunosuppressive activity |  | 
CC[C@@H]1/C=C(\C)C[C@H](C)C[C@H](OC)[C@H]2O[C@@](O)(C(=O)C(=O)N3CCCC[C@H]3C(=O)O[C@H](/C(C)=C/[C@@H]3CC[C@@H](O)[C@H](OC)C3)[C@H](C)[C@@H](O)CC1=O)[C@H](C)C[C@@H]2OC [immunomycin] |  | positive inhibition of T-cell activation | Solubility in methanol
